Legend:
SURVIVIN, OCT4 and NANOG = test: qRT-PCR of the three probed genes together (SURVIVIN, OCT4, NANOG) in hES cells; type: cell-based, human; settings: 72 hours
Description: (§1) Total cellular RNA was extracted from cells using TRIzol (Invitrogen) and DNase treated with the DNA-free kit (Ambion, Austin, Tex., http (colon slash slash) www (dot) ambion.com) following manufacturer's directions for stringent conditions. RNA was dialyzed for 30 minutes against milliqwater, 10 mM Tris and 1 mM EDTA adjusted to pH 7.5 with HCL (all from Fisher). cDNA was synthesized using GeneAmp RNA PCR kit from Applied Biosciences (Fisher) and no-RT reactions were performed without reverse transcriptase and RNase inhibitor enzymes. One microgram of RNA was used, following manufacturer's directions. Quantitative real time polymerase chain reaction (qPCR) was performed to determine relative mRNA expression levels. Expression fold changes were calculated using the ΔΔCt method and normalized using the housekeeping gene, β-ACTIN as an internal control. Taqman master mix and gene assays with water only were used as a negative control. mRNA expression assays were analyzed in a triplicate PCR reaction with no-RT negative controls and each experiment was performed at least three independent times. Primers for OCT4 and NANOG were selected from predeveloped Applied Biosystems TaqMan Assays, which are pre-designed qPCR primers and TaqMan MGB probes; Oct-4 (Hs01895061_u1) and Nanog (Hs02387400_g1) were selected. Primers for SURVIVIN were: […]
(§2) Based on the toxicity results, nine of the above twelve compounds in Example 1 were selected for further screening to assess their effects on the expression of OCT4, NANOG and SURVIVIN in human embryonic stem cells. The results are summarized in Table 2, along with the mitochondrial inhibition activities for these compounds which were disclosed in US20110301180A1 to Collman et al. the content of which has been incorporated herein by reference.
(§3) The pluripotency of these cultured human embryonic stem cells were characterized by the marker gene expression as analyzed by Quantitative Reverse Transcriptase PCR (qRT-PCR). All compounds were tested at 1 mM concentration for 72 hours except for compound 1 which was tested at 10 μM. The reversibility of mitochondrial inhibition is presented in the right column.

NANOG [1] = test: qRT-PCR gene expression in hES cells: NANOG; type: cell-based; settings: Homo sapiens, 72 hours, normalized to β-ACTIN, read-out: Expression relative to control, NANOG; for fold induction at 1000 µM: 1 mM
Description: as §1, §2, §3

[2] = tested on: mitochondrial respiration; settings: cited from earlier work; for mitochondrial inhibition IC50: values from US 20110301180; for Inhibition/Reversibility in mitochondrial inhibition: disclosed in US20110301180A1
OCT4 = test: qRT-PCR gene expression in hES cells: OCT4; type: cell-based, human; settings: 72 hours
Description: as §1, §2, §3

SURVIVIN = test: qRT-PCR gene expression in hES cells: SURVIVIN; type: cell-based; settings: Homo sapiens, 72 hours, normalized to β-ACTIN, read-out: Expression relative to control, SURVIVIN; for fold induction at 1000 µM: 1 mM
Description: as §1, §2, §3

NANOG [3] = settings: human embryonic stem cells; cited from earlier work
[4] = tested on: human embryonic stem cells; test: Toxicity testing of mitochondrial inhibitors on hES cells (72 hr culture, crystal violet staining); settings: for nontoxic concentration (no toxicity up to): tested from 0.1 mM to 50 mM
Description: Human ES cells, WA09 (WiCell Research Institute, Madison, Wis.) were cultured on dishes coated for at least two hours with Matrigel (BD Biosciences, Franklin Lakes, N.J.). hES cell media containing 80% knockout Dulbecco's modified eagle medium (DMEM), 20% knockout serum replacer, 1% nonessential amino acids, 1% penicillin/streptomycin (100 U per 100 μg/ml), 2 mM L-glutamine, (all from Invitrogen, Carlsbad, Calif.) and 4 ng/ml basic fibroblast growth factor (bFGF, ReproCELL, San Jose, Calif.) was pre-conditioned by culture with inactivated mouse embryonic fibroblasts (MEF; Millipore, Billerica, Mass.) and collected every two days. hES cell lines were cultured with human conditioned media (HuCM) supplemented with 4 ng/ml bFGF and a heterocyclic compound of a certain concentration. hES cells were maintained by weekly manual passaging or bulk passaging using 1 mg/ml Collagenase IV (Invitrogen). hES cells were plated for experiments using Accutase (Fisher, Pittsburgh, Pa.) and plated at a density of 26,000 cells/cm^2.
Toxicity Testing hES cells were plated as above and subjected to increasing concentrations of the mitochondrial inhibitors for 72 hr of culture. After 72 hr the cells were fixed in 2.0% formaldehyde and stained for 30 min with 0.05% crystal violet in distilled water. Stained cells were rinsed twice with distilled water and imaged using bright field microscopy.
These compounds were initially tested at concentrations from 0.1 mM to 50 mM.

[5] = Solubility in the culture media; type: physicochemical; settings: hES cell culture media
From the text: Compound 2 was not soluble in the culture media and was not tested further.

[6] = Homo sapiens, 1 mM, normalized to β-ACTIN, read-out: Expression relative to control, OCT4

SMILES	One of the genes overexpressed by at least 10% (SURVIVIN, OCT4 and NANOG; 1 mM)	change in expression of SURVIVIN, OCT4 and NANOG following treatment (FIG. 2) (SURVIVIN, OCT4 and NANOG; 1 mM)	fold induction at 1000 µM (NANOG [1])	mitochondrial inhibition IC50 [2] [mg/mL]	fold induction at 1000 µM (OCT4; [6])	fold induction at 1000 µM (SURVIVIN)	Inhibition/Reversibility in mitochondrial inhibition [2]	further results
O=C(O)CCCC[C@H]1CCSS1 (single isomer, unassigned) [Compound 3, 5-[(3R or 3S)-dithiolan-3-yl]pentanoic acid]	Yes	increased expression of SURVIVIN and OCT4 but not NANOG	0.717	37.1	1.85	1.11		
CCCCCC[C@H]1C(=O)O[C@H](C)[C@H](NC(=O)c2cccc(NC=O)c2O)C(=O)O[C@@H](C)[C@@H]1OC(=O)CC(C)C [Antimycin A, [(2R,3S,6S,7R,8R)-3-[(3-formamido-2-hydroxybenzoyl)amino]-8-hexyl-2,6-dimethyl-4,9-dioxo-1,5-dioxonan-7-yl] 3-methylbutanoate]								effect on expression of pluripotency factor NANOG (NANOG [3]): increase in the expression of pluripotency factor NANOG
Cc1ncsc1CCOC(=O)C[P+](c1ccccc1)(c1ccccc1)c1ccccc1.[Br-] [Compound 1, [2-[2-(4-methylthiazol-5-yl)ethoxy]-2-oxo-ethyl]-triphenyl-phosphonium bromide]				8.8			No	One of the genes overexpressed by at least 10% (SURVIVIN, OCT4 and NANOG; 10 μM): No; change in expression of SURVIVIN, OCT4 and NANOG following treatment (FIG. 2) (SURVIVIN, OCT4 and NANOG; 10 μM): decreased expression of all three genes; fold induction at 10 µM (NANOG [1]; 10 μM): 0.902; fold induction at 10 µM (OCT4; Homo sapiens, 10 μM, normalized to β-ACTIN, read-out: Expression relative to control, OCT4): 0.9; toxicity at the initially tested concentrations ([4]; initial range 0.1 mM to 50 mM): toxic at all concentrations tested initially; nontoxic / well tolerated concentration (up to) ([4]; retested at 0.1 to 100 μM): up to 10 μM; fold induction at 10 µM (SURVIVIN; 10 μM): 0.892
c1ccc(CSc2nnn[nH]2)cc1 [Compound 2, 5-benzylsulfanyl-1H-tetrazole]								solubility in the culture media [5]: not soluble
Cc1cncs1 [Compound 4, 5-methylthiazole]	Yes	increased expression of all three genes	1.14	23.5	1.13	1.27	reversible mitochondrial inhibitors and Yes	nontoxic concentration (no toxicity up to) [4]: ≤ 10 mM
Cn1c(-c2ccccc2)cnc1S [Compound 5, 3-methyl-4-phenyl-1H-imidazole-2-thione]	Yes	increased expression of all three genes	1.16	5.4	1.5	1.44		nontoxic concentration (no toxicity up to) [4]: at least 5 mM
CCOC(=O)Cc1nnn[nH]1 [Compound 6, ethyl 2-(1H-tetrazol-5-yl)acetate]	Yes	increased expression of SURVIVIN and OCT4 but not NANOG	0.867	100	1.34	1.75		
Nc1nnn[nH]1 [Compound 7, 1H-tetrazol-5-amine]	Yes	increased expression of SURVIVIN and OCT4 but not NANOG	0.917	8.5	1.53	1.73	reversible mitochondrial inhibitors and Yes	OCT4 overexpression (OCT4; 1 mM, vs control): at least 50%
Brc1nn[nH]c1Br [Compound 9, 4,5-dibromo-1H-triazole]								toxicity at 1 mM ([4]; 1 mM): minimal toxicity; nontoxic concentration (no toxicity up to) [4]: up to 0.1 mM
Cc1nnn[nH]1 [Compound 10, 5-methyl-1H-tetrazole]	No	decreased expression of all three genes	0.778		0.977	0.981		
O=C(O)Cc1nnn[nH]1 [Compound 11, 2-(1H-tetrazol-5-yl)acetic acid]	No	increase in OCT4 and no other genes	0.849		1.07	0.975		
CSc1nnn[nH]1 [Compound 12, 5-methylsulfanyl-1H-tetrazole]	Yes	increased expression of SURVIVIN and OCT4 but not NANOG	0.844	14.5	1.16	1.05	reversible mitochondrial inhibitors and Yes	

Reference: patent US10196604B2, “Mitochondrial inhibitors for use in culturing pluripotent stem cells” (The Board of Trustees of the Leland Stanford Junior …, priority 2014, dated 2019)
